According to patent US12377079B2, “Antibacterial compounds and uses thereof” (The Children's Medical Center Corporation, priority 2018, dated 2025):
≈ marks a conversion by molar mass, not a printed value. Entries after “also recorded” stand apart in the source; their conditions may differ. Like-named read-outs stand apart in the source and are kept apart here.

What was measured:
[1] = test system: CR-K. pneumoniae (ATCC BAA-1705); test: Minimum inhibitory concentration (MIC); details: for Minimum inhibitory concentration (MIC): CR-K. pneumoniae ATCC BAA-1705, PAβN + (40 μg/mL); for MIC: Klebsiella pneumoniae
K. pneumoniae Kp233 = test: Minimum inhibitory concentration (MIC); details: for MIC: Klebsiella pneumoniae
[2] = test system: E. coli urine isolate EC236; test: Minimum inhibitory concentration (MIC); details: Escherichia coli, read-out: Minimum inhibitory concentration (MIC)
[3] = test system: E. coli urine isolate EC235; test: Minimum inhibitory concentration (MIC); details: Escherichia coli, read-out: Minimum inhibitory concentration (MIC)
P. aeruginosa PA01 = test: Minimum inhibitory concentration (MIC); details: for Minimum inhibitory concentration (MIC): P. aeruginosa PA01, PAβN + (40 μg/mL); for MIC: Pseudomonas aeruginosa, PA01, read-out: Minimum inhibitory concentration (MIC)
[4] = test system: CR K. pneumoniae strain BAA-1705; test: Dose-response growth inhibition (viable cell counts in LB broth); details: 22 hr in LB broth, concentrations tested 0.78-50 μg/mL
[5] = test system: K. pneumoniae strain BAA-1705; test: High-throughput screen / dose-response based on mannose fermentation; details: for Inhibition of mannose fermentation: 22 hours, pH-DM, concentrations similar to primary and cherry-pick screens
resistant GNR = test: MIC with and without efflux pump inhibitor PAβN, resistant GNR as a group
K. pneumoniae (Kp233) [6] = test: Morphometric analysis by phase contrast microscopy; type: cell-based, Klebsiella pneumoniae; details: stationary phase cells, 4 hr; compounds 100 μl/mI alone or with PAβN, ampicillin 150 μg/mL
Procedure: (§1) Morphometric analysis. Carbapenem-susceptible Kp233 were treated as described for stationary phase viability assays, with the exception that negative control wells contained no DMSO and no antimicrobials. Ampicillin (150 μg/mL) was used as a positive control. Cells were incubated statically at 37° C. for 4 hr. Thirty μL from each well was transferred into a 24-well plate filled with 300 μL of LB broth. Images were captured with a 40× magnification lens using a Nikon Eclipse TE2000-E microscope. Morphometric analysis was carried out using IPLab 4.0 software.

Group A streptococcus = test: Minimum inhibitory concentration (MIC); details: read-out: Minimum inhibitory concentration (MIC)
A. baumanii = test: Minimum inhibitory concentration (MIC); details: for Minimum inhibitory concentration (MIC): A. baumanii, PAβN + (40 μg/mL); for MIC: Acinetobacter baumannii, read-out: Minimum inhibitory concentration (MIC)
HeLa S3 cells = test: Alamar Blue assay for cytotoxicity; type: cell-based, human; details: 20 hours
Procedure: Alamar Blue assay for cytotoxicity. HeLa S3 cells were cultured in Dulbecco's modified Eagle medium supplemented with 10% fetal bovine serum, 100 U/mL penicillin, and 100 μg/mL streptomycin. Each well of a 96-well microtiter plate (Nunclon Delta Surface, Thermo Scientific) was seeded with 10,000 cells in 100 μL of culture medium. Cells were incubated for 18 hr in a humidified incubator at 37° C. with 5% CO2 to allow attachment. Compounds were added to the adherent cells to yield a final concentration of 13 and 107 μg/mL. Positive control wells contained 0.1% Triton X-100, carrier control wells contained DMSO, and negative control wells contained medium and cells without DMSO. After addition of compounds, 0.1% Triton, or DMSO, plates were returned to the incubator. Cell viability was measured by resazurin reduction. Alamar Blue reagent (Invitrogen) was added to the cells after a 1.5 hr incubation with the test compounds. Cells were incubated for 20 hr, and then fluorescence was measured using the Infinite 200 (Tecan) with excitation and emission wavelengths of 550 nm and 590 nm, respectively. To calculate viability, the average fluorescence value of Triton-treated positive control wells was subtracted from that of untreated wells or wells containing test compounds. These values were then divided by the average fluorescence of untreated wells to give cell viability as a percentage of the negative control.

Kp233/pJBA110 = test: GFP fluorescence assay (protein synthesis); details: 15 hr
[7] = Particulate matter in aqueous media (micrographs); type: physicochemical; details: 100 μg/mL in culture medium
Procedure: as §1

MRSA = test: Minimum inhibitory concentration (MIC); details: Staphylococcus aureus, read-out: Minimum inhibitory concentration (MIC)
[8] = molecular target: Human tyrosyl-DNA phosphodiesterase 1 (TDP1) (Homo sapiens, UniProt Q9NUW8); details: PubChem BioAssay; cited from earlier work
K. pneumoniae (Kp233) [9] = test: Compound impact on bacterial viability (exponential and stationary phase); type: cell-based, Klebsiella pneumoniae; details: 4 hr; for Bacterial viability (CFU) with efflux pump inhibition: 100 μg/mL compound + PAβN 40 μg/ml
Procedure: Compound impact on bacterial viability. […] One hundred μL of each compound preparation was dispensed into the wells of a microtiter plate. Negative (untreated) wells contained LB with or without PAβN only. Stationary phase cell viability. A glycerol stock of the carbapenem-susceptible clinical strain of K. pneumoniae (Kp233) was inoculated into 1.5 mL of LB and incubated overnight (approximately 18 hr) at 37° C. with shaking. […] Cells were incubated statically at 37° C. for 4 hr, and viable counts were determined by plating. Exponential phase cell viability. Overnight cultures of Kp233 were diluted 1:5,000 into 50 mL of LB broth and incubated at 37° C. with shaking at 200 rpm. […] These cells were also washed twice with NS and inoculated into the wells of a microtiter plate prepared as described above. Cells were incubated statically at 37° C. for 4 hr, and viable counts were determined by plating.

Lassa virus entry = details: PubChem BioAssay; cited from earlier work
[10] = test system: S. aureus teichoic acid biosynthesis; details: secondary screens, after a hit in the primary screen; cited from earlier work
Glut1 = molecular target: T1, Glut1 (Homo sapiens, UniProt P11166); details: high-throughput screen, PubChem BioAssay; cited from earlier work
T1 sequence (P11166 1-492): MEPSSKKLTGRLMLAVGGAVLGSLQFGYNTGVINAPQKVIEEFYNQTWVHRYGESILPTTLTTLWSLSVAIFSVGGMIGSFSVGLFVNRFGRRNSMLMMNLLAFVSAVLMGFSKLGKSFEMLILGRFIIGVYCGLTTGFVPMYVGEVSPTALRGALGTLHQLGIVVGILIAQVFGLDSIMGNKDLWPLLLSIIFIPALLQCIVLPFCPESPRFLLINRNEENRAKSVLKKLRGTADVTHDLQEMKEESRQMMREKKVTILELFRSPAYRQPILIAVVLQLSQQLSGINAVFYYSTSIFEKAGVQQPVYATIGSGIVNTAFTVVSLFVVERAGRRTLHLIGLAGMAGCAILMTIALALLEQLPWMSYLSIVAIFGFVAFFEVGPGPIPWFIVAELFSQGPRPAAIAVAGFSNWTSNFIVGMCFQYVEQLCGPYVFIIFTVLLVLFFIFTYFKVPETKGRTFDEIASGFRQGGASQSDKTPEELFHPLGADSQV

LmGT2 = LmGT2 (Leishmania mexicana, UniProt O61059); details: high-throughput screen, PubChem BioAssay; cited from earlier work
[11] = ATCCBAA1705, read-out: Minimum inhibitory concentration (MIC)
[12] = KP233, read-out: Minimum inhibitory concentration (MIC)
[13] = highest concentration used (100 μg/mL)
[14] = higher concentration (107 μg/mL)
[15] = exponential and stationary phase

Sequence of LmGT2 (O61059 entry or part of it): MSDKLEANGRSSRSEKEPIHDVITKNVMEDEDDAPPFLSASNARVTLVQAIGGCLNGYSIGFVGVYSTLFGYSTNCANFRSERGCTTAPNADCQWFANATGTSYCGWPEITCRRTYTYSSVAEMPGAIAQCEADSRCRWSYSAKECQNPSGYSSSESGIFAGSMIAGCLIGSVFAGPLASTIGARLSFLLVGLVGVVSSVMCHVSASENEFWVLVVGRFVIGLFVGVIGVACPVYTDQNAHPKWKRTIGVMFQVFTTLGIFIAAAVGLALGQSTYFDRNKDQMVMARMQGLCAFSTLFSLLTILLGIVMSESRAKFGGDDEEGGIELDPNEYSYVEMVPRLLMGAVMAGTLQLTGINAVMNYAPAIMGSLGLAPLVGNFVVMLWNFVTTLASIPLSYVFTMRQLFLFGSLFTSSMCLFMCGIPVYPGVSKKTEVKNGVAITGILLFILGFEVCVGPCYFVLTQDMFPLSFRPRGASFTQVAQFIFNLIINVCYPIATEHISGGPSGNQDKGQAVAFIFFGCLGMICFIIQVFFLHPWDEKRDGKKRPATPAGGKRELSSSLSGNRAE
Sequence of Human tyrosyl-DNA phosphodiesterase 1 (TDP1) (Q9NUW8 whole entry): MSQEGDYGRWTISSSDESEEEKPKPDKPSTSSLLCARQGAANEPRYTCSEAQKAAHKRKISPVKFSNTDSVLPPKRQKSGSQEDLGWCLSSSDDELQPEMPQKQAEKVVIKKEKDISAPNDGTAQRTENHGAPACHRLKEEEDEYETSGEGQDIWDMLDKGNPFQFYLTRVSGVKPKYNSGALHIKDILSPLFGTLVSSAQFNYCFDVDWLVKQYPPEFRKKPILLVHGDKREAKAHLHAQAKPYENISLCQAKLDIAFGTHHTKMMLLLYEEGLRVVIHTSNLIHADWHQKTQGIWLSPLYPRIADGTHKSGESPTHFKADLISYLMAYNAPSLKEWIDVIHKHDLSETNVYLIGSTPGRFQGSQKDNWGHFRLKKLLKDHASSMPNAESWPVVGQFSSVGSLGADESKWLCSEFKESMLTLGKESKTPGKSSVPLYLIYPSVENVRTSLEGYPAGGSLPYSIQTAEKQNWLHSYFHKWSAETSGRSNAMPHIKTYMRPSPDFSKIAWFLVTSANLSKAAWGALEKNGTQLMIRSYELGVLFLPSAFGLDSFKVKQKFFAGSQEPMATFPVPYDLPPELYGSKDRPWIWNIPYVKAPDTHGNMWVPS

O=C(N[C@H](CO)[C@H](O)c1ccc([N+](=O)[O-])cc1)C(Cl)Cl [Cm, chloramphenicol, reference compound]
Minimum inhibitory concentration (MIC) [1]: 39 µg/mL | Reduction of MIC by PAβN ([1]; K. pneumoniae, with PAβN versus without): 32 fold | MIC [1, 11]: 1250 µg/mL (≈ 3870 µM) | MIC (K. pneumoniae Kp233; [12]): < 9 µg/mL | MIC [2]: < 9 µg/mL | MIC [3]: < 9 µg/mL

Cc1nnc(SCC2=NN(c3nc4ccccc4[nH]3)C(=O)C2)s1 [Compound C17]
Minimum inhibitory concentration (MIC) (P. aeruginosa PA01): 48 µg/mL | MIC (P. aeruginosa PA01): > 96 µg/mL | Growth inhibition (CFU/ml) [4]: inhibited growth | Inhibition of mannose fermentation [5]: inhibited fermentation | Activity in cherry-pick re-test ([5]; dispensed by HP D300 digital dispenser): significant activity | Change of MIC on addition of PAβN (in words) (resistant GNR): minimally decreased | Minimum inhibitory concentration (MIC) [1]: 48 µg/mL | MIC [1, 11]: 96 µg/mL (≈ 279 µM) | MIC (K. pneumoniae Kp233; [12]): 48 µg/mL (≈ 139 µM) | MIC [2]: 96 µg/mL (≈ 279 µM) | Cell shape / average particle size (K. pneumoniae (Kp233) [6]): do not significantly alter cell shape | MIC [3]: 96 µg/mL (≈ 279 µM) | MIC (Group A streptococcus): 96 µg/mL (≈ 279 µM) | Minimum inhibitory concentration (MIC) (A. baumanii): 24 µg/mL | MIC (A. baumanii): > 96 µg/mL | Toxicity to HeLa S3 cells (viability by resazurin reduction) (HeLa S3 cells; 13 and 107 μg/mL): least toxic; also recorded: not toxic | Bacterial growth (OD) and GFP fluorescence (Kp233/pJBA110; [13]): decreased both bacterial growth and protein synthesis | Particulate matter in micrographs (insolubility in aqueous media) [7]: not | MIC (MRSA): 24 µg/mL (≈ 69.7 µM)

Cc1nn2c(=O)cc(-c3ccc(F)cc3)[nH]c2c1-c1ccccc1 [Compound F02]
Toxicity to HeLa S3 cells (viability by resazurin reduction) (HeLa S3 cells; [14]): moderately toxic

Cc1nn2c(=O)cc(-c3ccc(Cl)cc3)[nH]c2c1-c1ccccc1 [Compound N08]
Minimum inhibitory concentration (MIC) (P. aeruginosa PA01): 12 µg/mL | MIC (P. aeruginosa PA01): > 96 µg/mL | Inhibition of TDP1 (screen) [8]: flagged | Reduction of MIC by addition of PAβN (resistant GNR): 1-2 logs | Bacterial viability (CFU) with efflux pump inhibition (K. pneumoniae (Kp233) [9]; [15]): significantly potentiated the killing activity; also recorded: significantly decrease the viability | Minimum inhibitory concentration (MIC) [1]: 6 µg/mL | MIC [1, 11]: > 96 µg/mL | MIC (K. pneumoniae Kp233; [12]): > 96 µg/mL | MIC [2]: > 96 µg/mL | Cell shape / average particle size (K. pneumoniae (Kp233) [6]): do not significantly alter cell shape | MIC [3]: > 96 µg/mL | MIC (Group A streptococcus): > 96 µg/mL | Inhibition of Lassa virus entry (screen) (Lassa virus entry): flagged | Minimum inhibitory concentration (MIC) (A. baumanii): 1.5 µg/mL | MIC (A. baumanii): > 96 µg/mL | Toxicity to HeLa S3 cells (viability by resazurin reduction) (HeLa S3 cells; 13 and 107 μg/mL): minimal toxicity | Toxicity to HeLa S3 cells (viability by resazurin reduction) (HeLa S3 cells; [14]): moderately toxic | Bacterial growth (OD) and GFP fluorescence (Kp233/pJBA110; low concentrations): interfered with GFP fluorescence but not growth | Particulate matter in micrographs (insolubility in aqueous media) [7]: particulate matter was observed | Inhibition of teichoic acid biosynthesis [10]: not found to have this activity | MIC (MRSA): < 0.75 µg/mL

Clc1cc(Br)ccc1-c1ccc(CNCC2CCNCC2)o1 [Compound O06]
Minimum inhibitory concentration (MIC) (P. aeruginosa PA01): 24 µg/mL | MIC (P. aeruginosa PA01): > 96 µg/mL | Activity in screen for Glut1 inhibitors (Glut1): active | Inhibition of mannose fermentation [5]: inhibited fermentation | Change of MIC on addition of PAβN (in words) (resistant GNR): minimally decreased | Bacterial viability (CFU) with efflux pump inhibition (K. pneumoniae (Kp233) [9]; [15]): significantly potentiated the killing activity; also recorded: significantly decrease the viability | Bacterial viability (CFU) (K. pneumoniae (Kp233) [9]; 100 μg/mL compound alone, exponential and stationary phase): decreased the viability | Minimum inhibitory concentration (MIC) [1]: 96 µg/mL | MIC [1, 11]: 96 µg/mL (≈ 250 µM) | MIC (K. pneumoniae Kp233; [12]): 96 µg/mL (≈ 250 µM) | MIC [2]: 96 µg/mL (≈ 250 µM) | Cell shape / average particle size (K. pneumoniae (Kp233) [6]): do not significantly alter cell shape | MIC [3]: 96 µg/mL (≈ 250 µM) | Activity in screen for LmGT2 inhibitors (LmGT2): active | MIC (Group A streptococcus): 48 µg/mL (≈ 125 µM) | Minimum inhibitory concentration (MIC) (A. baumanii): 24 µg/mL | MIC (A. baumanii): 48 µg/mL (≈ 125 µM) | Toxicity to HeLa S3 cells (viability by resazurin reduction) (HeLa S3 cells; 13 and 107 μg/mL): most toxic | Bacterial growth (OD) and GFP fluorescence (Kp233/pJBA110; [13]): decreased both bacterial growth and protein synthesis | Particulate matter in micrographs (insolubility in aqueous media) [7]: not | MIC (MRSA): 48 µg/mL (≈ 125 µM)

C[C@H]1COc2c(N3CCN(C)CC3)c(F)cc3c(=O)c(C(=O)O)cn1c23 [Lev, levofloxacin, reference compound]
Minimum inhibitory concentration (MIC) (P. aeruginosa PA01): 0.015 µg/mL | Reduction of MIC by PAβN (P. aeruginosa PA01; P. aeruginosa, with PAβN versus without): 16 fold | MIC (P. aeruginosa PA01): 0.25 µg/mL (≈ 0.692 µM) | MIC (K. pneumoniae Kp233; [12]): 0.031 µg/mL (≈ 0.0858 µM) | MIC [2]: 0.015 µg/mL (≈ 0.0415 µM) | MIC [3]: 0.015 µg/mL (≈ 0.0415 µM)

CC1(C)S[C@@H]2[C@H](NC(=O)[C@H](N)c3ccccc3)C(=O)N2[C@H]1C(=O)O [ampicillin, reference compound]
Cell shape / average particle size (K. pneumoniae (Kp233) [6]): formed filaments with significantly increased average particle size

O=C1C=C2C(=CCOC2O)O1 (centres unmarked) [patulin, reference compound]
MIC ([1]; ATCCBAA1705, read-out: Minimum inhibitory concentration, CR-K. pneumoniae ATCC BAA-1705, Defined Medium): 9.38 µg/mL (≈ 60.9 µM) | MIC ([1]; ATCCBAA1705, read-out: Minimum inhibitory concentration, CR-K. pneumoniae ATCC BAA-1705, LB broth (rich medium)): 18.8 µg/mL (≈ 122 µM) | Minimum inhibitory concentration (K. pneumoniae Kp233; K. pneumoniae Kp233, Defined Medium): 9.38 µg/mL (≈ 60.9 µM) | MIC (K. pneumoniae Kp233; KP233, read-out: Minimum inhibitory concentration): 9.38 µg/mL (≈ 60.9 µM)

phenylalanine-arginine β-naphthylamide [PAβN, reference compound]
Bacterial viability (CFU) (K. pneumoniae (Kp233) [9]; PAβN 40 μg/mL alone, exponential or stationary phase): did not decrease the viability
